From patent publication US6426355B1, “Heterocyclic carboxamide-containing thiourea inhibitors of herpes viruses containing phenylenediamine group” (American Home Products, priority 1998, dated 2002)
Values after ≈ are worked out from the molar mass of the structure shown.

Experiments:
[1] = test system: HCMV recombinant mutant virus (RV145); assay: HCMV microtiter plate assay (beta-glucuronidase reporter); format: cell-based, Human Cytomegalovirus; conditions: Human betaherpesvirus 5, Fibroblast, read-out: IC50 (ug/ml) HCMV
In short: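 Human foreskin fibroblasts were infected with RV145 in the presence of inhibitor. β-glucuronidase under a viral promoter served as the replication marker. At 96 h post-infection, lysates in pH 7.0 phosphate with Triton X-100/sarkosyl were assayed colorimetrically or fluorometrically, and IC50 was estimated from varying inhibitor amounts.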

[2] = test system: HSV-1; assay: HSV Antiviral (ELISA) assay; format: cell-based; conditions: Human alphaherpesvirus 1, HSV-1 in Vero cells, read-out: IC50 (ug/ml) HSV
In short: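 Vero cells in DMEM/2% FBS pretreated with compound 30 min before HSV-1 infection (MOI 0.006), then ~24 h at 37 °C. Viral gD detected by ELISA with β-galactosidase secondary and 4-methylumbelliferyl-galactoside (ex 365/em 450 nm); IC50 from fluorescence versus untreated infected cells.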

[3] = test system: VZV strain Ellen; assay: VZV Antiviral (ELISA) assay; format: cell-based; conditions: for IC50: Human alphaherpesvirus 3, VZV strain Ellen in HFF cells, read-out: IC50 (ug/ml) VZV; for inhibition at 10 µg/mL: Human alphaherpesvirus 3, read-out: % inhibition 10 ug/ml VZV, at 10 ug/ml, VZV strain Ellen in HFF cells
In short: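 Cell-based VZV (Ellen) spread assay in HFF, 3-day compound exposure in 2% FBS medium. Viral antigen quantified by fluorescent β-galactosidase ELISA; IC50 from inhibition of signal.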

SMILES | IC50 [1] | IC50 [2] | IC50 [3] | inhibition at 10 µg/mL [3]
O=C(Nc1ccc(NC(=S)Nc2ccc(F)c(Cl)c2)cc1)c1ccccc1F [Example 972, N-{4-[3-(3-Chloro-4-fluoro-phenyl)-thioureido]-phenyl} -2-fluoro-benzamide] | 0.006 µg/mL (≈ 0.0144 µM) | > 10 µg/mL | > 15 µg/mL | 95%
O=C(Nc1ccc(NC(=S)Nc2cccc(Cl)c2Cl)cc1)c1csnn1 [Example 979, [1,2,3]Thiadiazole-4-carboxylic acid {4-[3-(2,3-dichloro-phenyl)-thioureido]-phenyl} -amide] | 0.19 µg/mL (≈ 0.448 µM) | 8 µg/mL (≈ 18.9 µM) | 12 µg/mL (≈ 28.3 µM) | 88%
CC(=O)Nc1ccc(NC(=S)Nc2cc(Cl)ccc2Cl)cc1 [Example 980, N-{4-[3-(2,5-Dichloro-phenyl)-thioureido]-phenyl} -acetamide] | 0.05 µg/mL (≈ 0.141 µM) | > 10 µg/mL | – | 56%
CC(=O)Nc1ccc(NC(=S)Nc2cc(Cl)c(Cl)c(Cl)c2)cc1 [Example 986, N-{4-[3-(3,4,5-Trichloro-phenyl)-thioureido]-phenyl}-acetamide] | 0.031 µg/mL (≈ 0.0798 µM) | > 10 µg/mL | – | 5%
O=C(Nc1ccc(NC(=S)Nc2cc(Cl)c(Cl)c(Cl)c2)cc1)c1csnn1 [Example 989, [1,2,3]Thiadiazole-4-carboxylic acid {4-[3-(3,4,5-trichloro-phenyl)-thioureido]-phenyl}-amide] | 0.016 µg/mL (≈ 0.0349 µM) | > 10 µg/mL | > 10 µg/mL | 21%
O=C(Nc1ccc(NC(=S)Nc2ccc(-c3cc[nH]n3)c(Cl)c2)cc1)c1csnn1 [Example 991, [1,2,3]Thiadiazole-4-carboxylic acid (4-{3-[3-chloro-4-(1H-pyrazol-3-yl)-phenyl]-thioureido}-phenyl)-amide] | 0.022 µg/mL (≈ 0.0483 µM) | > 10 µg/mL | > 10 µg/mL | 3%
O=C(Nc1ccc(NC(=S)Nc2cccc(Cl)c2)cc1)c1csnn1 [Example 992, [1,2,3]Thiadiazole-4-carboxylic acid {4-[3-(3-chloro-phenyl)-thioureido]-phenyl}-amide] | 0.018 µg/mL (≈ 0.0462 µM) | > 10 µg/mL | > 10 µg/mL | 29%
O=C(Nc1ccc(NC(=S)Nc2cccc(Cl)c2)cc1)c1ccco1 [Example 993, Furan-2-carboxylic acid {4-[3-(3-chloro-phenyl)-thioureido]-phenyl}-amide] | 0.013 µg/mL (≈ 0.035 µM) | > 10 µg/mL | > 10 µg/mL | –
O=C(Nc1ccc(NC(=S)Nc2cccc(Cl)c2)cc1)c1ccccc1F [Example 994, N-{4-[3-(3-Chloro-phenyl)-thioureido]-phenyl}-2-fluoro-benzamide] | 0.07 µg/mL (≈ 0.175 µM) | > 10 µg/mL | > 10 µg/mL | –
O=C(Nc1ccc(NC(=S)Nc2ccc(Cl)cc2)cc1)c1ccccc1F [Example 996, N-{4-[3-(4-Chloro-phenyl)-thioureido]-phenyl}-2-fluoro-benzamide] | 0.15 µg/mL (≈ 0.375 µM) | 10 µg/mL (≈ 25 µM) | > 10 µg/mL | –
NC(=O)c1cccc(NC(=S)Nc2ccc(NC(=O)c3ccco3)cc2)c1 [Example 1004, Furan-2-carboxylic acid {4-[3-(3-carbamoyl-phenyl)-thioureido]-phenyl} -amide] | 0.5 µg/mL (≈ 1.31 µM) | > 10 µg/mL | > 10 µg/mL | 36%
NC(=O)c1cccc(NC(=S)Nc2ccc(NC(=O)c3csnn3)cc2)c1 [Example 1005, [1,2,3]Thiadiazole-4-carboxylic acid {4-[3-(3-carbamoyl-phenyl)-thioureido]-phenyl}-amide] | 2 µg/mL (≈ 5.02 µM) | > 10 µg/mL | > 10 µg/mL | 16%
O=C(Nc1ccc(NC(=S)Nc2ccccc2Cl)cc1)c1csnn1 [Example 1006, [1,2,3]Thiadiazole-4-carboxylic acid {4-[3-(2-chloro-phenyl)-thioureido]-phenyl}-amide] | 0.2 µg/mL (≈ 0.513 µM) | > 10 µg/mL | > 10 µg/mL | 13%
O=C(Nc1ccc(NC(=S)Nc2cccc(F)c2)cc1)c1ccco1 [Example 1007, Furan-2-carboxylic acid {4-[3-(3-fluoro-phenyl)-thioureido]-phenyl} -amide] | 0.11 µg/mL (≈ 0.31 µM) | > 10 µg/mL | > 10 µg/mL | 18%
O=C(Nc1ccc(NC(=S)Nc2cccc([N+](=O)[O-])c2)cc1)c1ccco1 [Example 1008, Furan-2-carboxylic acid {4-[3-(3-nitro-phenyl)-thioureido]-phenyl} -amide] | 0.12 µg/mL (≈ 0.314 µM) | > 10 µg/mL | > 10 µg/mL | 15%
O=C(Nc1ccc(NC(=S)Nc2cccc([N+](=O)[O-])c2)cc1)c1ccccc1F [Example 1009, 2-Fluoro-N-{4-[3-(3-nitro-phenyl)-thioureido]-phenyl} -benzamide] | 0.2 µg/mL (≈ 0.487 µM) | 10 µg/mL (≈ 24.4 µM) | – | 22%
O=C(Nc1ccc(NC(=S)Nc2cccc(OC(F)(F)F)c2)cc1)c1ccccc1F [Example 1011, 2-Fluoro-N-{4-[3-(3-trifluoromethoxy-phenyl)-thioureido]-phenyl} -benzamide] | 0.039 µg/mL (≈ 0.0868 µM) | > 10 µg/mL | – | 20%
O=C(Nc1ccc(NC(=S)Nc2cccc(S(=O)(=O)CCO)c2)cc1)c1ccco1 [Example 1018, Furan-2-carboxylic acid (4-{3-[3-(2-hydroxy-ethanesulfonyl)-phenyl]-thioureido} -phenyl)-amide] | 0.4 µg/mL (≈ 0.898 µM) | > 10 µg/mL | > 10 µg/mL | 2%
O=C(Nc1ccc(NC(=S)Nc2cccc(S(=O)(=O)CCO)c2)cc1)c1ccccc1F [Example 1019, 2-Fluoro-N-(4-{3-[3-(2-hydroxy-ethanesulfonyl)-phenyl]-thioureido} -phenyl)-benzamide] | 1.5 µg/mL (≈ 3.17 µM) | > 10 µg/mL | – | 2%
Cc1cc(NC(=S)NC(C)c2ccc(F)cc2)ccc1NC(=O)c1cc2ccccc2cn1 (centres unmarked) [Example 1126, Isoquinoline-3-carboxylic acid (4-{3-[1-(4-fluoro-phenyl)-ethyl]-thioureido}-2-methyl-phenyl)-amide] | 5.8 µg/mL (≈ 12.6 µM) | > 10 µg/mL | 0.7 µg/mL (≈ 1.53 µM) | –
CC(NC(=S)Nc1ccc(NC(=O)c2cnccn2)cc1)c1ccc(F)cc1 (centres unmarked) [Example 1127, Pyrazine-2-carboxylic acid (4-{3-[1-(4-fluoro-phenyl)-ethyl]-thioureido}-phenyl)-amide] | 1 µg/mL (≈ 2.53 µM) | 9.5 µg/mL (≈ 24 µM) | 3.7 µg/mL (≈ 9.36 µM) | –
CC(NC(=S)Nc1ccc(NC(=O)c2cccs2)cc1)c1ccc(F)cc1 (centres unmarked) [Example 1128, Thiophene-2-carboxylic acid (4-{3-[1-(4-fluoro-phenyl)-ethyl]-thioureido}-phenyl)-amide] | 1.3 µg/mL (≈ 3.25 µM) | > 10 µg/mL | > 10 µg/mL | –
CC(NC(=S)Nc1ccc(NC(=O)c2ccsc2)cc1)c1ccc(F)cc1 (centres unmarked) [Example 1129, Thiophene-3-carboxylic acid (4-{3-[1-(4-fluoro-phenyl)-ethyl]-thioureido}-phenyl)-amide] | 1 µg/mL (≈ 2.5 µM) | 1.9 µg/mL (≈ 4.76 µM) | > 10 µg/mL | –
CC(C)c1nc(C(=O)Nc2ccc(NC(=S)Nc3ccc(Cl)c(C(F)(F)F)c3)cc2)cs1 [Example 1130, 2-Isopropyl-thiazole-4-carboxylic acid {4-[3-(4-chloro-3-trifluoromethyl-phenyl)-thioureido]-phenyl}-amide] | 2 µg/mL (≈ 4.01 µM) | 2 µg/mL (≈ 4.01 µM) | 5.5 µg/mL (≈ 11 µM) | –
CC(C)c1nc(C(=O)Nc2ccc(NC(=S)Nc3cc(Cl)cc(Cl)c3)cc2)cs1 [Example 1131, 2-Isopropyl-thiazole-4-carboxylic acid {4-[3-(3,5-dichloro-phenyl)-thioureido]-phenyl}-amide] | 1.5 µg/mL (≈ 3.22 µM) | 2.2 µg/mL (≈ 4.73 µM) | 9 µg/mL (≈ 19.3 µM) | –
CC(C)c1nc(C(=O)Nc2ccc(NC(=S)Nc3ccc(Cl)c(Cl)c3)cc2)cs1 [Example 1132, 2-Isopropyl-thiazole-4-carboxylic acid {4-[3-(3,4-dichloro-phenyl)-thioureido]-phenyl}-amide] | 1.2 µg/mL (≈ 2.58 µM) | 2.6 µg/mL (≈ 5.59 µM) | 3.9 µg/mL (≈ 8.38 µM) | –
CC(C)c1nc(C(=O)Nc2ccc(NC(=S)Nc3cc(C(F)(F)F)cc(C(F)(F)F)c3)cc2)cs1 [Example 1133, 2-Isopropyl-thiazole-4-carboxylic acid {4-[3-(3,5 bis-trifluoromethyl-phenyl)-thioureido]-phenyl}-amide] | 1.5 µg/mL (≈ 2.82 µM) | 6 µg/mL (≈ 11.3 µM) | > 10 µg/mL | –
CCCCc1nc(C(=O)Nc2ccc(NC(=S)Nc3ccc(Cl)c(Cl)c3)cc2)cs1 [Example 1134, 2-Butyl-thiazole-4-carboxylic acid {4-[3-(3,4-dichloro-phenyl)-thioureido]-phenyl}-amide] | 1 µg/mL (≈ 2.09 µM) | 2.4 µg/mL (≈ 5.01 µM) | 1.6 µg/mL (≈ 3.34 µM) | –
CCCCc1nc(C(=O)Nc2ccc(NC(=S)Nc3ccc(Cl)c(C(F)(F)F)c3)cc2)cs1 [Example 1135, 2-Butyl-thiazole-4-carboxylic acid {4-[3-(4-chloro-3-trifluoromethyl-phenyl)-thioureido]-phenyl}-amide] | 1.3 µg/mL (≈ 2.53 µM) | 3.6 µg/mL (≈ 7.02 µM) | 7.5 µg/mL (≈ 14.6 µM) | –
